According to PMC6609550, “Blockade of the forward Na^+/Ca^2+ exchanger suppresses the growth of glioblastoma cells through Ca^2+‐mediated cell death” (British Journal of Pharmacology, 2019):

Legend:
Type in all cases: cell-based, Human
SF188 cells = experiment: Cell viability assay (Cell Counting Kit-8), SF188; conditions: for Effect on viability of paediatric glioblastoma cell line SF188 (in words): 0–100 μM; for Effect on viability of paediatric glioblastoma cell line SF188 (in words) / IC50: 72 hr; for IC50: CCK-8, mean ± SEM
Experimental: (§1) Cell viability was determined by using a Cell Counting Kit‐8 (Dojindo, Japan). Briefly, cells were harvested from flasks and plated in 96‐well cell culture plates at 5 × 10^3 per well and cultured overnight. […] Control cells were treated with cell culture medium and measured at the same time point as treatment groups. CCK‐8 solution (10 μl) was added to each well of the 96‐well plates, and the cultures were incubated for 30 min at 37°C. Absorbance at 450 nm was measured using an automatic microplate reader (Molecular Devices, San Jose, CA, USA).
(§2) Figure 2 Effect of the Na^+/Ca^2+ exchanger (NCX) blockers on viability of human glioblastoma cell lines. (a, b) Viability of adult glioblastoma cell lines (U87 and U251) after exposure to NCX blockers bepridil, KB‐R7943, SEA0400, SN‐6, or YM244769 at 0–100 μM for 72 hr. n = 5 independent tests per group. (c) Viability of paediatric glioblastoma cell line SF188 after 72‐hr incubation with the same NCX blockers at 0–100 μM. n = 5 independent tests per group. (d) For U87, U251, and SF188 cell lines, concentration of the NCX blockers required to produce half maximal inhibition (IC50: μM, mean ± SEM) of cell viability.

[Ca^2+]i in U87 cells = Ca2+ imaging (Fluo-4 AM) of U87 cells; conditions: for Effect on [Ca2+]i level in Ca2+-free solution / Effect on intracellular Ca2+ pool and ER Ca2+ transporting: Ca2+‐free solution; for Effect on intracellular Ca2+ pool and ER Ca2+ transporting: followed by 5‐μM thapsigargin; for Effect on [Ca2+]i level: solution containing 2‐mM Ca2+, bepridil or KB‐R7943 25 or 50 μM, CB‐DMB 2 and 4 μM
Experimental: (§3) Cells were cultured in 96‐well plates at 8 × 10^3 per well and loaded with the cell membrane‐permeable Ca^2+ dye Fluo‐4 AM (5 μM) in 100‐μl HEPES‐buffered solution for 50 min. The solution contained (mM): 135 NaCl, 3 KCl, 2 CaCl2, 1 MgCl2, 10 glucose, and 10 HEPES, supplemented with 1% FBS at pH 7.4. To prepare the Ca^2+‐free solution, 2‐mM CaCl2 was replaced with 1‐mM EGTA in the HEPES‐buffered solution. The 96‐well plate containing the Fluo‐4 AM‐loaded cells was mounted in a Leica TCS SP8 confocal system (Leica Microsystems, Wetzlar, Germany). The confocal microscope armed with 488‐nm laser light was employed to excite the dynamic fluorescent signals in time and synchronously, while test regents were added to cells. To do Na^+ imaging, Fluo‐4 AM was replaced with the cell membrane‐permeable Na^+ dye Asante NaTrium Green‐2 AM (ANG‐2 AM) at 5 μM, which was excited by 514‐nm laser light. Visual inspection and fluorescent imaging were carried out at room temperature. The imaging data were analysed with the software https://leica-las-af-lite.software.informer.com/ 2.5 (Leica). The imaging traces shown are representative of at least three separate experiments; 12–18 cells were imaged in each experiment.

reverse NCX = experiment: Whole-cell patch-clamp recording of reverse-mode NCX currents in U87 cells; conditions: reverse NCX current measured at +50 mV, mean ± SEM, n = 4, read-out: IC50, blocking reverse NCX (currents)
Experimental: Whole‐cell patch‐clamp recording was performed using a Multiclamp 700B amplifier (Molecular Devices, Foster City, CA, USA) at room temperature. Voltage protocols were provided and current recorded via a DigiData‐1550B interface (Molecular Devices) controlled by pClamp 10 Software (Molecular Devices, RRID:SCR_011323). […] Internal solution consisted of (in mM): 120 CsCl, 20 NaCl, 2 MgCl2, 13 CaCl2, 2 Na2ATP, 20 BAPTA, and 10 HEPES at a pH 7.2. […] Series resistance was compensated by 75–85%. Linear leak and residual capacitance currents were subtracted online using a P/4 protocol of the pClamp 10. For the recording of the membrane currents related to the NCX, cells were held at −50 mV and depolarized to +60 mV, and then a voltage ramp starting from +60 to −120 mV was applied for 1,000 ms before returning back to −50 mV. The reverse and forward NCX currents were measured at +50 and −110 mV holding potentials respectively (Molinaro et al., 2008; Rahman, Inman, Kiss, & Janssen, 2012; Song, Chen, & Yu, 2014). Data were filtered at 3 KHz and digitized at sampling rates of 20 KHz. For drug application, cells were perfused with a VC‐6 Six Channel Perfusion Valve Control Systems (Warner Instruments, Greenwich, CT, USA) connected to a gravity‐fed perfusion systems.
Data are expressed as mean ± SEM and analysed by Prism 7 software, La Jolla, CA (GraphPad Prism, RRID:SCR_002798). The data and statistical analysis comply with the recommendations of the British Journal of Pharmacology on experimental design and analysis in pharmacology. Concentrations of the NCX blockers (IC50) exerting half‐maximal inhibition of NCX currents were obtained by fitting the concentration–response with the equation: I/I0*100%=Bottom+Top−Bottom/1+10^((^Log^IC50−C)*n) , where I 0 and I are current amplitudes measured in control and in the presence of NCX blockers, C is the logarithm of concentration, and n is the Hill coefficient. The statistical difference between two independent groups was analysed by Student's parametric unpaired t test. And the original data of more than two groups were assessed by the parametric one‐way ANOVA followed by a Tukey's post hoc test. The data for cell viability and Western blot were usually normalized to the control group, and were thus analysed by the non‐parametric Kruskal–Wallis test followed by a Dunn's post hoc test. Differences were considered to be significant when P < .05. Post hoc tests were conducted when the F value achieved the necessary level (P < .05) and there was no significant variance inhomogeneity.
We characterized the membrane currents associated with NCX activity in glioblastoma cells using whole‐cell patch‐clamp recording. […] The NCX current in its reverse mode (Ca^2+ entry) was measured at +50, and the forward‐mode current (Ca^2+ exit) was measured at −110 mV. The Ni^2+ (10 mM) was employed to inhibit and identify the NCX currents in its either reverse or forward mode as previously reported (Maack, Ganesan, Sidor, & O'Rourke, 2005).

[Na^+]i in U87 cells = Na+ imaging (ANG-2 AM) of U87 cells; conditions: bepridil 50 μM, KB‐R7943 50 μM, CB‐DMB 4 μM
Experimental: as §3

U87 cells = experiment: Cell viability assay (Cell Counting Kit-8), U87; conditions: for IC50: 72 hr, CCK-8, mean ± SEM
Experimental: as §1, §2

Row | IC50 (U87 cells) | Compound | Effect on viability of paediatric glioblastoma cell line SF188 (in words) (SF188 cells) | Effect on growth (viability) of SF188 cells (SF188 cells; 25 μM, 48 hr) | IC50 (SF188 cells; Homo sapiens, SF-188) | Effect on [Ca2+]i level in Ca2+-free solution ([Ca^2+]i in U87 cells) | Effect on intracellular Ca2+ pool and ER Ca2+ transporting ([Ca^2+]i in U87 cells) | Effect on [Ca2+]i level ([Ca^2+]i in U87 cells) | IC50 (reverse NCX) | Effect on intracellular Na+ [Na+]i level ([Na^+]i in U87 cells) | Effect on growth (viability) of U87 cells (U87 cells; 25 μM, 48 hr) | IC50 (U87 cells; Homo sapiens, U-87 MG) | IC50 (SF188 cells)
1 | – | CC(C)COCC(CN(Cc1ccccc1)c1ccccc1)N1CCCC1 (stereo not drawn) [Bepridil, N‐benzyl‐N‐(3‐isobutoxy‐2‐pyrrolidin‐1‐yl‐propyl)aniline] | suppressed by bepridil and KB‐R7943 in a dose‐dependent manner | markedly suppressed growth | 12.9 ± 1 µM | did not show [Ca^2+]i elevation or fluctuation | neither bepridil nor KB‐R7943 affect intracellular Ca^2+ pool and Ca^2+ transporting on the ER membrane | quick [Ca^2+]i increase and sustained [Ca^2+]i elevation | 15.6 ± 1.1 µM | did not change | markedly suppressed growth | 18.6 ± 1.1 µM | –
2 | 26.6 ± 1.4 µM | CS(=O)(=O)O.N=C(N)SCCc1ccc(OCc2ccc([N+](=O)[O-])cc2)cc1 [KB‐R7943, 2‐[4‐[(4‐nitrophenyl)methoxy]phenyl]ethyl ester carbamimidothioic acid methanesulfonate] | suppressed by bepridil and KB‐R7943 in a dose‐dependent manner | – | – | did not show [Ca^2+]i elevation or fluctuation | neither bepridil nor KB‐R7943 affect intracellular Ca^2+ pool and Ca^2+ transporting on the ER membrane | a short [Ca^2+]i descent in the beginning and a slow [Ca^2+]i increases ensuing | 14.3 ± 1.2 µM | slightly decreased | – | – | 17.3 ± 1 µM
